Experimental data taken from patent publication US5750782A, “Nitroaniline derivatives and their use as anti-tumour agents” (priority 1996, dated 1998).

Columns and labels:
AA8 = assay: Growth inhibition (IC50), AA8 cells, aerobic; assay type: cell-based; conditions: 18 h exposure
Experimental: (§1) Growth inhibition studies were performed as described in detail elsewhere (W.R. Wilson, R.F. Anderson and W.A Denny. J Med. Chem., 1989, 32, 23; G.J. Finlay, B.C. Baguley and W.R. Wilson. Anal Biochem., 1984, 139, 172.), using 200 viable AA8 or 300 viable UV4 cells plus 5000 lethally-irradiated AA8 feeder cells per well in 96-well tissue culture dishes. AA8 and UV4 cells were maintained in logarithmic-phase growth in […] tissue culture flasks with subculture twice weekly by trypsinization. The growth medium was antibiotic-free α-MEM with 10% v/v heat-inactivated ([…], 40 min) fetal calf serum. Doubling times were approximately 14h for AA8 and 15h for UV4 cells.

UV4 = assay: Growth inhibition (IC50), UV4 cells, aerobic; assay type: cell-based; conditions: air, 18 h exposure
Experimental: as §1

AA8 and UV4 cell lines = assay: Ratio of IC50 values against AA8 and UV4 cell lines (HFair); assay type: cell-based; conditions: 18 h exposure
Experimental: as §1
Ratio of IC50 values for a compound after exposure as detailed above against AA8 and UV4 cell lines (HF=IC50 (AA8)/IC50 (UV4)).

UV4 cells = assay: Clonogenic assay, UV4 cells (CT10), aerobic and hypoxic; assay type: cell-based; conditions: for CT10 ratio (air/N2): UV4 cells, aerobic CT10/hypoxic CT10; for CT10 (UV4): air, concentration x time to reduce UV4 cell survival to 10% of control
Excerpt: The product (in μM-hr) of the drug concentration times the exposure time to reduce cell survival to 10% of control values in the clonogenic assay.
Ratio of CT10 values after exposure of UV4 cells as detailed above under either aerobic (air) or hypoxic (N2) conditions (=aerobic CT10 /hypoxic CT10).

UV4 cell line = assay: Ratio of IC50 values against UV4 cell line in presence and absence of E. coli nitroreductase enzyme NTR-2; assay type: cell-based; conditions: air, ratio of IC50 in presence and absence of E. coli nitroreductase NTR-2, 1080 min
Experimental: as §1
Ratio of IC50 values for a compound after exposure as detailed above against the UV4 cell line in the presence and absence of the E. coli nitroreductase enzyme NTR-2.

V79 cells = conditions: +Nitroreductase alone (2 μg/ml); 2 h, 37° C
Experimental: The nitroreductase concentration was 2 μg/ml and NADH was used as a co-factor. The initial cell density was 2×10^5 /mL.

Molecule	IC50 (AA8; air)	IC50 (UV4)	HF (air) = IC50 (AA8)/IC50 (UV4) (AA8 and UV4 cell lines)	CT10 ratio (air/N2) (UV4 cells)	CT10 (UV4) (UV4 cells)	HF (NR-2) (UV4 cell line)	IC50 (AA8; Cricetulus griseus, CHO-AA8, air)	IC50 (UV4; Cricetulus griseus)	% SURVIVAL (V79 cells)
NC(=O)c1cc(N(CCBr)CCBr)c([N+](=O)[O-])cc1[N+](=O)[O-] [Compound 2, 5-[N,N-bis(2-bromoethyl)amino]-2,4-dinitrobenzamide]	57 µM	10.9 µM	7.5	20	160 μM-h	32.3	–	–	–
NC(=O)c1cc(N(CCI)CCI)c([N+](=O)[O-])cc1[N+](=O)[O-] [Compound 3, 5-[N,N-bis(2-iodoethyl)amino]-2,4-dinitrobenzamide]	34 µM	15 µM	2.6	42	170 μM-h	73.8	–	–	–
CS(=O)(=O)OCCN(CCOS(C)(=O)=O)c1cc(C(N)=O)c([N+](=O)[O-])cc1[N+](=O)[O-] [Compound 4, 5-[N,N-bis(2-methanesulfonoxyethyl)amino]-2,4-dinitrobenzamide]	–	–	–	17	1200 μM-h	10.0	> 200 µM	99 µM	–
O=C(O)c1cc(N(CCCl)CCCl)c([N+](=O)[O-])cc1[N+](=O)[O-] [Compound 6, 5-[N,N-bis(2-chloroethyl)amino]-2,4-dinitrobenzoicacid]	10600 µM	317 µM	1.5	> 2	> 30000 μM-h	0.76	–	–	–
N#Cc1cc(N(CCCl)CCCl)c([N+](=O)[O-])cc1[N+](=O)[O-] [Compound 7, 5-[N,N-bis(2-chloroethyl)aminol]-2,4-dinitrobenzonitrile]	24 µM	2.3 µM	6.8	8.5	86 μM-h	9.2	–	–	–
CN(C)C(=O)c1cc(N(CCCl)CCCl)c([N+](=O)[O-])cc1[N+](=O)[O-] [Compound 9, N,N-dimethyl [N,N-bis(2-chloroethyl)amino]-2,4-dinitrobenzainide]	310 µM	–	1.4	> 20	> 3500 μM-h	–	–	–	–
O=C(c1cc(N(CCCl)CCCl)c([N+](=O)[O-])cc1[N+](=O)[O-])N1CCOCC1 [Compound 10, N-morpholino [N,N-bis(2-chloroethyl)amino]-2,4-dinitrobenzamiide]	264 µM	–	23	1.6	156 μM-h	–	–	–	–
O=C(NCCN1CCOCC1)c1cc(N(CCCl)CCCl)c([N+](=O)[O-])cc1[N+](=O)[O-] [Compound 12, N-[2-(morpholino)ethyl][N,N-bis(2-chloroethyl)amino]-2,4-dinitrobenzainide]	920 µM	–	3.0	45	3700 μM-h	–	–	–	–
NC(=S)c1cc(N(CCCl)CCCl)c([N+](=O)[O-])cc1[N+](=O)[O-] [Compound 13, 5-[N,N-bis(2-chloroethyl)amino]-2,4-dinitrothiobenzamide]	> 25 µM	–	> 2	> 3	> 60 μM-h	–	–	–	–
C[N+](C)([O-])CCNC(=O)c1cc(N(CCCl)CCCl)c([N+](=O)[O-])cc1[N+](=O)[O-] [Compound 14, N-(N^1,N^1-dimethylaminoethyl) [N,N-bis(2-chloroethyl)amino]-2,4-dinitrobenzamide N^1-oxide]	7300 µM	–	1.7	< 10	< 14400 μM-h	–	–	–	–
O=C(O)CCNC(=O)c1cc(N(CCCl)CCCl)c([N+](=O)[O-])cc1[N+](=O)[O-] [Compound 15, N-(2-carboxyethyl) 5-[N,N-bis(2-chloroethyl)amino]-2,4-dinitrobenzamide]	6100 µM	–	1.1	2	14000 μM-h	–	–	–	–
O=C(NCC(O)CO)c1cc(N(CCCl)CCCl)c([N+](=O)[O-])cc1[N+](=O)[O-] (centres unmarked) [Compound 17, N-(2,3-dihydroxypropyl)5-[N,N-bis(2-chloroethyl)amino]-2,4-dinitrobenzarnide]	1790 µM	–	3.2	14	3340 μM-h	–	–	–	–
NS(=O)(=O)c1cc(N(CCCl)CCCl)c([N+](=O)[O-])cc1[N+](=O)[O-] [Compound 18, 5-[N,N-bis(2-chloroethyl)amino]-2,4-dinitrobenzenesulfonamide]	3 µM	–	–	–	–	–	–	–	–
NC(=O)c1cc([N+](=O)[O-])cc([N+](=O)[O-])c1N(CCCl)CCCl [Compound 19, 2-[N,N-bis(2-chloroethyl)amino]-3,5-dinitrobenzamide]	> 100 µM	–	ca. 3	> 5	> 300 μM-h	–	–	–	–
CN(C)CCNC(=O)c1cc([N+](=O)[O-])cc([N+](=O)[O-])c1N(CCCl)CCCl [Compound 20, N-(N,N-dimethylaminoethyl) 2-[N,N-bis(2-chloroethyl)amino]-3,5-dinitrobenzamide]	150 µM	–	14	36	1200 μM-h	–	–	–	–
NC(=O)c1c([N+](=O)[O-])ccc(N(CCCl)CCCl)c1[N+](=O)[O-] [Compound 21, 3-[N,N-bis(2-chloroethyl)amino]-2,6-dinitrobenzamide]	> 240 µM	–	> 2	> 3	> 300 μM-h	–	–	–	–
CN(C)CCNC(=O)c1c([N+](=O)[O-])ccc(N(CCCl)CCCl)c1[N+](=O)[O-] [Compound 22, N-(N,N-dimethylaminoethyl) 3-[N,N-bis(2-chloroethyl)amino]-2,6-dinitrobenzamide]	426 µM	–	3.2	130	3600 μM-h	–	–	–	–
NC(=O)c1cc([N+](=O)[O-])c(N(CCCl)CCCl)c([N+](=O)[O-])c1 [Compound 23, 4-[N,N-bis(2-chloroethyl)amino]-3,5-dinitrobenzamide]	97 µM	–	1.4	> 1	> 450 μM-h	–	–	–	–
CN(C)CCNC(=O)c1cc([N+](=O)[O-])c(N(CCCl)CCCl)c([N+](=O)[O-])c1 [Compound 24, N-(N,N-dimethylaminoethyl) 4-[N,N-bis(2-chloroethyl)amino]-3,5-dinitrobenzamide]	62 µM	–	2.0	> 1	> 273 μM-h	–	–	–	–
Nitroreductase: E. coli nitroreductase (protein, UniProt P38489 1-217, looked up) Oxygen-insensitive NAD(P)H …: MDIISVALKRHSTKAFDASKKLTPEQAEQIKTLLQYSPSSTNSQPWHFIVASTEEGKARVAKSAAGNYVFNERKMLDASHVVVFCAKTAMDDVWLKLVVDQEDADGRFATPEAKAANDKGRKFFADMHRKDLHDDAEWMAKQVYLNVGNFLLGVAALGLDAVPIEGFDAAILDAEFGLKEKGYTSLVVVPVGHHSVEDFNATLPKSRLPQNITLTEV	–	–	–	–	–	–	–	–	94%
